Measurements taken from paper PMC9146228, “Bioactivity of Novel Pyrazole-Thiazolines Scaffolds against Trypanosoma cruzi: Computational Approaches and 3D Spheroid Model on Drug Discovery for Chagas Disease” (Pharmaceutics, 2022).
Read-outs that look alike come from different tables or passages of the source.

Experiments:
[1] = test system: T. cruzi (Dm28c-Luc) intracellular amastigotes; assay: Trypanocidal activity against intracellular amastigotes in infected Vero cell monolayers; assay type: cell-based, Trypanosoma cruzi; settings: for IC90: read-out: Trypanocidal Activity Intracellular Amastigotes IC90; for Intracellular Amastigotes SI (CC50 of Vero cells/IC50): selectivity index vs Vero cells
Method: The susceptibility of intracellular amastigotes to pyrazole-thiazoline derivatives (series 1 and 2) was evaluated using 24 h T. cruzi-infected Vero cell monolayers (10:1 parasite/host cell ratio). Then, the cultures were washed with PBS to remove non-internalized parasites, and 200 μL of fresh medium with a serial dilution of pyrazole-thiazoline derivatives and Bz (0.41–100 µM) was added for 72 h at 37 °C.
(§1) After 72 h of treatment, luciferin (300 µg/mL) was added to the culture, and the viability of the parasites was assessed by reading the luminescent signal on the GloMax reader (Promega Corporation, Madison, WI, USA). Controls were also performed in non-toxic concentrations of DMSO (≤ 1%). The concentration that reduces the number of viable parasites by 50% (IC50) or 90% (IC90) was calculated by linear regression. The selectivity index (SI) was calculated as CC50/IC50 for each parasite form.

[2] = test system: T. cruzi (Dm28c-Luc) trypomastigotes; assay: microbe, parasite or virus in culture; assay type: cell-based, Trypanosoma cruzi; settings: for IC50 / IC90: Trypanosoma cruzi, 24 h, Dm28c-Luc, mean ± SD; for IC50: read-out: Trypanocidal Activity Trypomastigotes IC50; for IC90: read-out: Trypanocidal Activity Trypomastigotes IC90; for Trypomastigotes SI (CC50 of Vero cells/IC50): selectivity index vs Vero cells
Method: The screening assays were performed with T. cruzi clone Dm28c (TcI) genetically modified to express luciferase gene (Dm28c-Luc), kindly provided by Dr. Cristina Henriques. Trypomastigotes were isolated from T. cruzi-infected Vero cell monolayers (10:1 parasites/host cell ratio). On the 4th day post-infection (dpi), free trypomastigotes in the culture supernatant were harvested, and the number of parasites/mL was quantified in a Neubauer chamber.
The trypanocidal activity of the pyrazole-thiazoline derivatives was evaluated against trypomastigote and intracellular amastigote forms of T. cruzi (Dm28c-Luc). Tissue-derived trypomastigotes (1 × 10^6 parasites/well) were incubated with pyrazole-thiazoline derivatives and Bz in different concentrations (0.41–100 µM) for 24 h at 37 °C in a humidified atmosphere and 5% CO2. The parasite viability was determined by the addition of luciferin (300 µg/mL), followed by luminescence detection on the GloMax microplate reader (Promega Corporation, Madison, WI, USA).
as §1

[3] = Cytotoxicity in vitro assay (CellTiter-Glo); assay type: cell-based; settings: African green monkey, Vero cells, mean ± SD
Method: Vero cells, obtained from the Rio de Janeiro Cell Bank (BCRJ code 0245), were dissociated with trypsin–EDTA solution (0.025%), and maintained in RPMI 1640 medium supplemented with 10% fetal bovine serum (FBS) at 37 °C in a humidified atmosphere of 5% CO2.
The compound toxicity was evaluated in Vero cell cultures. Briefly, Vero cells were seeded in 96-well white culture plates at a density of 1.5 × 10^4 cells/well for 24 h at 37 °C and 5% CO2. Thereafter, the cell monolayers were washed with phosphate-buffered saline (PBS) and 200 μL of fresh medium with a serial dilution of the pyrazole-thiazoline derivatives and Bz (1.9–500 µM) added. The cell viability was determined by luminescent assay using the CellTiter-Glo Kit (Promega Corporation, Madison, WI, USA) based on the ATP level. After 72 h of treatment, 20 μL of CellTiter-Glo solution was added per well, and cultures were kept for 2 min under agitation. The luminescent signal was read on the GloMax reader (Promega Corporation, Madison, WI, USA). The concentration of compounds that reduced 50% of cell viability (CC50) was calculated by linear regression. At least three independent assays were performed in duplicate.

[4] = Trypanosoma cruzi, Vero, 72 h, Dm28c-Luc in Vero cells, 72 h, mean ± SD, read-out: Trypanocidal Activity Intracellular Amastigotes IC50
[5] = Trypanosoma cruzi, Vero, pIC50 = −log IC50, Dm28c-Luc clone, read-out: Intracellular Amastigotes pIC50 (converted)
[6] = Trypanosoma cruzi, Dm28c-Luc in Vero cells, 72 h, mean ± SD
[7] = Dm28c-Luc in Vero cells, 72 h, mean ± SD, read-out: Trypanocidal Activity Intracellular Amastigotes IC50

| SMILES | IC50 [1, 4] [µM] | IC50 [1, 5] [µM] | IC90 [1, 6] [µM] | Intracellular Amastigotes SI (CC50 of Vero cells/IC50) [1] | IC50 [2] [µM] | IC90 [2] [µM] | Trypomastigotes SI (CC50 of Vero cells/IC50) [2] | melting point [°C] | CC50 at 72 h [3] [µM] | IC50 [1, 7] [µM] |
| --- | --- | --- | --- | --- | --- | --- | --- | --- | --- | --- |
| Nc1c(C2=NCCS2)cnn1-c1ccccc1 [Compound 1a, 2-(5-amino-1-phenyl-1H-pyrazol-4-yl)-4,5-dihydrothiazole] | 80.7 ± 3.9 | 81.3 | > 100 | 3.1 | 66.4 ± 2.7 | > 100 | 3.7 | 176 to 178 | 248 ± 22 | – |
| Nc1c(C2=NCCS2)cnn1-c1cccc(Cl)c1 [Compound 1b, 2-(5-amino-1-(3-chlorophenyl)-1H-pyrazol-4-yl)-4,5-dihydrothiazole] | 95.7 ± 4.8 | 97.7 | > 100 | 5.2 | 96.9 ± 3.1 | > 100 | >5.2 | 186 to 189 | > 500 | – |
| Nc1c(C2=NCCS2)cnn1-c1ccc(Cl)cc1Cl [Compound 1c, 2-(5-amino-1-(2,4-dichlorophenyl)-1H-pyrazol-4-yl)-4,5-dihydrothiazole] | > 100 | > 100 | > 100 | <5 | > 100 | > 100 | <5 | 209 to 212 | > 50 | – |
| Nc1c(C2=NCCS2)cnn1-c1cc(Cl)cc(Cl)c1 [Compound 1d, 2-(5-amino-1-(3,5-dichlorophenyl)-1H-pyrazol-4-yl)-4,5-dihydrothiazole] | 63.2 ± 5.4 | 64.6 | > 100 | 6.6 | > 100 | > 100 | – | 232 to 234 | 416 ± 34.6 | – |
| Nc1c(C2=NCCS2)cnn1-c1ccc(Cl)c(Cl)c1 [Compound 1e, 2-(5-amino-1-(3,4-dichlorophenyl)-1H-pyrazol-4-yl)-4,5-dihydrothiazole] | > 100 | > 100 | > 100 | <5 | > 100 | > 100 | <5 | 279 to 282 | > 500 | – |
| Nc1c(C2=NCCS2)cnn1-c1ccc(Cl)cc1 [Compound 1f, 2-(5-amino-1-(4-chlorophenyl)-1H-pyrazol-4-yl)-4,5-dihydrothiazole] | > 100 | > 100 | > 100 | – | 88.3 ± 7.1 | > 100 | – | 283 to 285 | > 500 | – |
| Nc1c(C2=NCCS2)cnn1-c1ccc(F)cc1 [Compound 1g, 2-(5-amino-1-(4-fluorophenyl)-1H-pyrazol-4-yl)-4,5-dihydrothiazole] | 96.3 ± 2.7 | 97.7 | > 100 | 5.6 | > 100 | > 100 | <5 | 244 to 246 | 483 ± 16.6 | – |
| Nc1c(C2=NCCS2)cnn1-c1cccc(F)c1 [Compound 1h, 2-(5-amino-1-(3-fluorophenyl)-1H-pyrazol-4-yl)-4,5-dihydrothiazole] | > 100 | > 100 | > 100 | <5 | > 100 | > 100 | <5 | 230 to 232 | > 500 | – |
| Nc1c(C2=NCCS2)cnn1-c1ccc(Br)cc1 [Compound 1i, 2-(5-amino-1-(4-bromophenyl)-1H-pyrazol-4-yl)-4,5-dihydrothiazole] | > 100 | > 100 | > 100 | <5 | 49.3 ± 4.7 | > 100 | >10.1 | 282 to 284 | > 500 | – |
| Nc1c(C2=NCCS2)cnn1-c1cccc(Br)c1 [Compound 1j, 2-(5-amino-1-(3-bromophenyl)-1H-pyrazol-4-yl)-4,5-dihydrothiazole] | 26.6 ± 3.1 | 26.9 | > 100 | >18.7 | 52.3 ± 3.4 | > 100 | >9.5 | 171 to 173 | > 500 | – |
| COc1ccc(-n2ncc(C3=NCCS3)c2N)cc1 [Compound 1k, 2-(5-amino-1-(4-methoxyphenyl)-1H-pyrazol-4-yl)-4,5-dihydrothiazole] | 79.1 ± 4.4 | 79.4 | 97.3 ± 4.7 | >6.3 | 12 ± 3.5 | 93.4 ± 5.5 | >39.9 | 164 to 166 | > 500 | – |
| Nc1c(C2=NCCS2)cnn1-c1cccc(Cl)c1Cl [Compound 1l, 2-(5-amino-1-(2,3-dichlorophenyl)-1H-pyrazol-4-yl)-4,5-dihydrothiazole] | 11.1 ± 2 | 11.2 | > 100 | >44.9 | > 100 | > 100 | <5 | 188 to 190 | > 500 | – |
| c1ccc(-n2cc(C3=NCCS3)cn2)cc1 [Compound 2a, 2-(1-phenyl-1H-pyrazol-4-yl)-4,5-dihydrothiazole] | 10.7 ± 2.2 | 10.7 | 89 ± 2.6 | 17.4 | 1.1 ± 0.3 | 10.4 ± 1.1 | 166.8 | 112 to 114 | 187 ± 12.7 | – |
| Clc1cccc(-n2cc(C3=NCCS3)cn2)c1 [Compound 2b, 2-(1-(3-chlorophenyl)-1H-pyrazol-4-yl)-4,5-dihydrothiazole] | < 10 | ~10 | 31.9 ± 1.3 | 9.4 | 0.8 ± 0.3 | 8.8 ± 1.3 | 100.2 | 88 to 90 | 78.3 ± 7.7 | 8.3 ± 1.9 |
| Clc1cc(Cl)cc(-n2cc(C3=NCCS3)cn2)c1 [Compound 2d, 2-(1-(3,5-dichlorophenyl)-1H-pyrazol-4-yl)-4,5-dihydrothiazole] | > 100 | > 100 | > 100 | <5 | > 100 | > 100 | <5 | 134 to 136 | > 500 | – |
| Clc1ccc(-n2cc(C3=NCCS3)cn2)cc1 [Compound 2f, 2-(1-(4-chlorophenyl)-1H-pyrazol-4-yl)-4,5-dihydrothiazole] | < 10 | ~10 | 33.5 ± 4.4 | 12.0 | 0.6 ± 0.3 | 13.3 ± 2.3 | 143.6 | 130 to 133 | 91.7 ± 13.1 | 7.6 ± 2.5 |
